Organism: Mus musculus
Test: Antiinflammatory activity against PMA-induced ear inflammation in mouse assessed as decrease in ear weight at 50 ug/ear
Assay type: functional
Parameters: scale not given: the % may be the effect or the level left

`CC(=O)O[C@@H]1C[C@H]2[C@@](C)(CC[C@H]3C(C)(C)CCC[C@]23C)[C@@H]2CC=C(C=O)C[C@]21C` [HYRTIAL] was tested, and the Activity was 43%.

— ChEMBL document CHEMBL1149020, “Sesterterpenes from a common marine sponge, Hyrtios erecta” (1986)
